Source: US20140094424A1, “MICROBICIDAL COMPOSITIONS AND METHODS OF PRODUCTION USE THEREOF” (priority 2011, published 2014)
Like-named read-outs stand apart in the source and are kept apart here.

Experiments:
Ralstonia pickettii (AU) = format: cell-based
Protocol: (§1) The stock organisms were thawed and subbed prior to beginning the MBC test. Molds were subbed to SDA plates one week before, and the bacteria were subbed to TAT agar plates 24 hours prior to the start of the test. All plates were incubated at 32 degrees C.
(§2) Each bacterial organism was inoculated into 40 ml sterile saline in a centrifuge tube to create a density of MacFarland #1. Two serial dilutions of 1:100 were then made, resulting in 10^−2 and 10^−4 concentrations. Each dilution was vortexed before it was sampled, and sterile Eppendorf pipette tips were used to make each transfer. The 10^−4 dilution was spiral plated to yield the initial inoculum concentration.
(§3) MBC trays were set up with the prepared test reagent. Using a Matrix pipettor, 100 μl aliquots of reagent were distributed into the wells, diluting the amount of preservative from 100% to 10% increments, using unpreserved reagent as the diluent. In one row, 100% non-preserved reagent acted as a positive control and served as a benchmark for a full mat of growth. In well #12H, 100 μl unpreserved reagent was pipetted, and this well was not inoculated with organisms, as it served as the negative control. Once all of the trays were prepared, the prepared bacteria/mold suspensions were poured into the MBC inoculating trays. These were placed onto the reagent trays, and 0.01 ml inoculum was introduced into the 100 μl of reagent in each well.
(§4) This was done by dipping a sterile cotton swab into each well, and absorbing all of the liquid in the well. The swab was rolled onto a TAT agar plate ensuring that the entire swab touches the agar. Plates ware incubated at 32 degrees C. for 48 hours to 7 days, depending on the organism. Observations for growth were performed by a scoring matrix using + for a full mat, +/− for some growth, a numerical value for an actual colony count, and—for no growth.
(§5) Below are tables that contain the data obtained in Example 1. The MBC test is scored by (+) indicating a full grown mat of organisms, equivalent to the organisms in the unpreserved reagent. (+/−) indicates there is some kill evident disturbing that mat or bringing the quantities down to an almost countable level. An actual number is the actual number of colonies growing at that concentration of preservative. (−) indicates no growth found. The MBC trays were stored at room temperature for the entire test.
(§6) The materials and methods and analysis of the MBC test were the same as in Example 1.

[1] = tested on: Aspergillus glaucus- DMO (Q); assay: MBC (minimum bactericidal concentration) test in Wash NEXT reagent; format: cell-based
Protocol: as §1
as §2, with “For the molds, each” for “Each bacterial”, “#5.” for “#1.”
as §3, §4, §5, §6

## gentamicin
Ralstonia pickettii (AU); 10% preservative, 8 hour
  MBC test growth score: −
Ralstonia pickettii (AU); 10% preservative, 24 hour
  MBC test growth score: −
Ralstonia pickettii (AU); 10% preservative, 48 hour
  MBC test growth score: −
Ralstonia pickettii (AU); 10% preservative, 72 hour
  MBC test growth score: −
Ralstonia pickettii (AU); 20% preservative, 8 hour
  MBC test growth score: −
Ralstonia pickettii (AU); 20% preservative, 24 hour
  MBC test growth score: −
Ralstonia pickettii (AU); 20% preservative, 48 hour
  MBC test growth score: −
Ralstonia pickettii (AU); 20% preservative, 72 hour
  MBC test growth score: −
Ralstonia pickettii (AU); 30% preservative, 8 hour
  MBC test growth score: −
Ralstonia pickettii (AU); 30% preservative, 24 hour
  MBC test growth score: −
Ralstonia pickettii (AU); 30% preservative, 48 hour
  MBC test growth score: −
Ralstonia pickettii (AU); 30% preservative, 72 hour
  MBC test growth score: −
Ralstonia pickettii (AU); 40% preservative, 8 hour
  MBC test growth score: −
Ralstonia pickettii (AU); 40% preservative, 24 hour
  MBC test growth score: −
Ralstonia pickettii (AU); 40% preservative, 48 hour
  MBC test growth score: −
Ralstonia pickettii (AU); 40% preservative, 72 hour
  MBC test growth score: −
Ralstonia pickettii (AU); 50% preservative, 8 hour
  MBC test growth score: −
Ralstonia pickettii (AU); 50% preservative, 24 hour
  MBC test growth score: −
Ralstonia pickettii (AU); 50% preservative, 48 hour
  MBC test growth score: −
Ralstonia pickettii (AU); 50% preservative, 72 hour
  MBC test growth score: −
Ralstonia pickettii (AU); 60% preservative, 8 hour
  MBC test growth score: −
Ralstonia pickettii (AU); 60% preservative, 24 hour
  MBC test growth score: −
Ralstonia pickettii (AU); 60% preservative, 48 hour
  MBC test growth score: −
Ralstonia pickettii (AU); 60% preservative, 72 hour
  MBC test growth score: −
Ralstonia pickettii (AU); 70% preservative, 8 hour
  MBC test growth score: −
Ralstonia pickettii (AU); 70% preservative, 24 hour
  MBC test growth score: −
Ralstonia pickettii (AU); 70% preservative, 48 hour
  MBC test growth score: −
Ralstonia pickettii (AU); 70% preservative, 72 hour
  MBC test growth score: −
Ralstonia pickettii (AU); 80% preservative, 8 hour
  MBC test growth score: −
Ralstonia pickettii (AU); 80% preservative, 24 hour
  MBC test growth score: −
Ralstonia pickettii (AU); 80% preservative, 48 hour
  MBC test growth score: −
Ralstonia pickettii (AU); 80% preservative, 72 hour
  MBC test growth score: −
Ralstonia pickettii (AU); 90% preservative, 8 hour
  MBC test growth score: −
Ralstonia pickettii (AU); 90% preservative, 24 hour
  MBC test growth score: −
Ralstonia pickettii (AU); 90% preservative, 48 hour
  MBC test growth score: −
Ralstonia pickettii (AU); 90% preservative, 72 hour
  MBC test growth score: −
Ralstonia pickettii (AU); 100% preservative, 8 hour
  MBC test growth score: −
Ralstonia pickettii (AU); 100% preservative, 24 hour
  MBC test growth score: −
Ralstonia pickettii (AU); 100% preservative, 48 hour
  MBC test growth score: −
Ralstonia pickettii (AU); 100% preservative, 72 hour
  MBC test growth score: −
[1]; 10% preservative, 8 hour
  MBC test growth score: +
[1]; 10% preservative, 24 hour
  MBC test growth score: +
[1]; 10% preservative, 48 hour
  MBC test growth score: +/−
[1]; 10% preservative, 72 hour
  MBC test growth score: +/−
[1]; 10% preservative, 7 day
  MBC test growth score: +/−
[1]; 10% preservative, 14 day
  MBC test growth score: +/−
[1]; 20% preservative, 8 hour
  MBC test growth score: +
[1]; 20% preservative, 24 hour
  MBC test growth score: +
[1]; 20% preservative, 48 hour
  MBC test growth score: +/−
[1]; 20% preservative, 72 hour
  MBC test growth score: +/−
[1]; 20% preservative, 7 day
  MBC test growth score: +/−
[1]; 20% preservative, 14 day
  MBC test growth score: +/−
[1]; 30% preservative, 8 hour
  MBC test growth score: +
[1]; 30% preservative, 24 hour
  MBC test growth score: +
[1]; 30% preservative, 48 hour
  MBC test growth score: +/−
[1]; 30% preservative, 72 hour
  MBC test growth score: +/−
[1]; 30% preservative, 7 day
  MBC test growth score: +/−
[1]; 30% preservative, 14 day
  MBC test growth score: 36
[1]; 40% preservative, 8 hour
  MBC test growth score: +
[1]; 40% preservative, 24 hour
  MBC test growth score: +
[1]; 40% preservative, 48 hour
  MBC test growth score: +/−
[1]; 40% preservative, 72 hour
  MBC test growth score: +/−
[1]; 40% preservative, 7 day
  MBC test growth score: +/−
[1]; 40% preservative, 14 day
  MBC test growth score: 35
[1]; 50% preservative, 8 hour
  MBC test growth score: +
[1]; 50% preservative, 24 hour
  MBC test growth score: +
[1]; 50% preservative, 48 hour
  MBC test growth score: +/−
[1]; 50% preservative, 72 hour
  MBC test growth score: +/−
[1]; 50% preservative, 7 day
  MBC test growth score: 29
[1]; 50% preservative, 14 day
  MBC test growth score: 28
[1]; 60% preservative, 8 hour
  MBC test growth score: +
[1]; 60% preservative, 24 hour
  MBC test growth score: +
[1]; 60% preservative, 48 hour
  MBC test growth score: +/−
[1]; 60% preservative, 72 hour
  MBC test growth score: +/−
[1]; 60% preservative, 7 day
  MBC test growth score: 25
[1]; 60% preservative, 14 day
  MBC test growth score: 26
[1]; 70% preservative, 8 hour
  MBC test growth score: +
[1]; 70% preservative, 24 hour
  MBC test growth score: +
[1]; 70% preservative, 48 hour
  MBC test growth score: +/−
[1]; 70% preservative, 72 hour
  MBC test growth score: +/−
[1]; 70% preservative, 7 day
  MBC test growth score: 21
[1]; 70% preservative, 14 day
  MBC test growth score: 20
[1]; 80% preservative, 8 hour
  MBC test growth score: +
[1]; 80% preservative, 24 hour
  MBC test growth score: +
[1]; 80% preservative, 48 hour
  MBC test growth score: +/−
[1]; 80% preservative, 72 hour
  MBC test growth score: +/−
[1]; 80% preservative, 7 day
  MBC test growth score: 16
[1]; 80% preservative, 14 day
  MBC test growth score: 14
[1]; 90% preservative, 8 hour
  MBC test growth score: +
[1]; 90% preservative, 24 hour
  MBC test growth score: +
[1]; 90% preservative, 48 hour
  MBC test growth score: +/−
[1]; 90% preservative, 72 hour
  MBC test growth score: 22
[1]; 90% preservative, 7 day
  MBC test growth score: 10
[1]; 90% preservative, 14 day
  MBC test growth score: 9
[1]; 100% preservative, 8 hour
  MBC test growth score: +
[1]; 100% preservative, 24 hour
  MBC test growth score: +
[1]; 100% preservative, 48 hour
  MBC test growth score: +/−
[1]; 100% preservative, 72 hour
  MBC test growth score: 18
[1]; 100% preservative, 7 day
  MBC test growth score: 5
[1]; 100% preservative, 14 day
  MBC test growth score: 4
